Experimental data published in patent US20060019966A1, “Method for treating nervous system disorders and conditions” (Wyeth, priority 2004, published 2006).

Legend:
hNET = target: T1, hNET (Homo sapiens, UniProt P23975); experiment: Norepinephrine (NE) uptake assay, hNET function uptake; format: cell-based; settings: MDCK-Net6 cells, [3H]NE uptake
T1 construct: expressed in transfected cells; host or cells: MDCK-Net6 (MDCK cells stably transfected with hNET)
Description: (§1) The JAR cell line (human placental choriocarcinoma) may be purchased from ATCC (Cat. No. HTB-144). […] For all assays, cells may be plated in Wallac 96-well sterile plates (PerkinElmer, Cat. No. 3983498).
Test compounds are prepared in DMSO (10 mM) and diluted in assay buffer according to test range (1 to 10,000 nM). Twenty-five microliters of assay buffer (maximum NE uptake) or test compound are added directly to triplicate wells containing cells in 200 μl of assay buffer. […] To initiate the NE uptake, [^3H]NE diluted in assay buffer (120 nM final assay concentration) is delivered in 25 μl aliquots to each well and the plates is incubated for 5 minutes (37° C.).

hSERT = target: T2, hSERT (Homo sapiens, UniProt P31645); experiment: Serotonin (5-HT) uptake assay, hSERT function uptake; format: cell-based; settings: JAR cells, [3H]5-HT uptake
T2 construct: The methods for 5-HT functional reuptake using the JAR cell line; host or cells: JAR (human placental choriocarcinoma), staurosporine-stimulated
T2 sequence (P31645 whole entry): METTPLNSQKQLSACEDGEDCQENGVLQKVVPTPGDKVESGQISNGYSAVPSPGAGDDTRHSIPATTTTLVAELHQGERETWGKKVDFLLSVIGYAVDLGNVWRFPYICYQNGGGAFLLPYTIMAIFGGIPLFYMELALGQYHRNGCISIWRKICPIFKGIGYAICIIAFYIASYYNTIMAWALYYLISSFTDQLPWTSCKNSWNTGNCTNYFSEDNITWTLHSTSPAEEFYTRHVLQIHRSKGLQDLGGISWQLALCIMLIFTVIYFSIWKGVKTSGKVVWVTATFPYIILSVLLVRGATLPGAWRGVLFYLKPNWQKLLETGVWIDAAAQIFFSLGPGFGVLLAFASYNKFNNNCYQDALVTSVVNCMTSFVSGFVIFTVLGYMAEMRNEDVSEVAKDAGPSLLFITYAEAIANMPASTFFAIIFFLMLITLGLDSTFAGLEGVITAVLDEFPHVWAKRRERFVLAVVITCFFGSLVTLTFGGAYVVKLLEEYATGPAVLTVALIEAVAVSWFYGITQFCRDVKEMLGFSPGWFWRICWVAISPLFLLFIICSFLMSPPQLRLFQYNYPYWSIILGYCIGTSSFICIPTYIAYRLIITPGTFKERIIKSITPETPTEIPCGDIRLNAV
Description: as §1
The methods for 5-HT functional reuptake using the JAR cell line is modified using a previous literature report (Prasad, et al., Placenta, 1996. 17(4): 201-7). […] On day 2, cells are stimulated with staurosporine (40 nM) to increase the expression of the 5-HT transporter. On day 3, cells are removed from the cell incubator two hours prior to assay and maintained at room temperature to equilibrate the growth medium to ambient oxygen concentration. […] Data from these wells are used to define non-specific 5-HT uptake (minimum 5-HT uptake). Test compounds are prepared in DMSO (10 mM) and diluted in assay buffer according to test range (1 to 1,000 nM). Twenty-five microliters of assay buffer (maximum 5-HT uptake) or test compound are added directly to triplicate wells containing cells in 200 μl of assay buffer. The cells are incubated with the compound for 10 minutes (37° C.). To initiate the reaction, [^3H]hydroxytryptamine creatinine sulfate diluted in assay buffer is delivered in 25 μl aliquots to each well for a final test concentration of 15 nM. The cells are incubated with the reaction mixture for 5 minutes at 37° C. The 5-HT uptake reaction is terminated by decanting the assay buffer.

[1] = target: T3, recombinant human dopamine transporter (hDAT) (Homo sapiens, UniProt Q01959); experiment: Dopamine uptake transporter binding assay (3H-WIN 35,428); settings: inhibition of 3H-WIN 35,428 binding to hDAT membranes
T3 construct: purchased PerkinElmer RBHDATM
T3 sequence (Q01959 whole entry): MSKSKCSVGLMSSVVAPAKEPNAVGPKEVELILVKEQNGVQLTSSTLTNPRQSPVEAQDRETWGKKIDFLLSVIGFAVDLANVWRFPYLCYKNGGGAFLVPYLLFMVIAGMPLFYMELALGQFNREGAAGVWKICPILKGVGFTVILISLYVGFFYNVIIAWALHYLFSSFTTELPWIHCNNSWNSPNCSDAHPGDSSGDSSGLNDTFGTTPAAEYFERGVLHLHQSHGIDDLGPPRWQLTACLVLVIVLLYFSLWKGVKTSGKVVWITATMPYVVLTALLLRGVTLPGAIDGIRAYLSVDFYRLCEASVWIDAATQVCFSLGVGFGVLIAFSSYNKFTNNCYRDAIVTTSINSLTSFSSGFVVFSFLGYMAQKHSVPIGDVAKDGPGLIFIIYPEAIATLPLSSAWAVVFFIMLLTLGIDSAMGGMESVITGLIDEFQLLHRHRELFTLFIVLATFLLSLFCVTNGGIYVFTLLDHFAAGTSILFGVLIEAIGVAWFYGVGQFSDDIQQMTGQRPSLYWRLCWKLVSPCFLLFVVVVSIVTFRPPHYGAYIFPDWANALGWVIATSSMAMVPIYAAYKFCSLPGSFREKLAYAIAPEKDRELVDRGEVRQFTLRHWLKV

[2] = test system: tail skin temperature (TST) in ovariectomized (OVX) rats; experiment: Telemetry rat model of ovariectomy-induced thermoregulatory dysfunction; format: in vivo; settings: 30 mg/kg, sc, single dose
Text: Telemetry model: This model has been modified from a previously reported protocol describing estrogen regulation of diurnal tail skin temperature (TST) patterns (Berendsen, et al., European Journal of Pharmacology, 2001, 419(1): 47-54). […] In ovariectomized (OVX) rats, TST is elevated over the entire 24-hour period, thus the usual decrease in TST during the active (dark) phase is lost, thus, a compound's ability to restore this lowering of TST during the active phase was examined. […] After a 7-day recovery period, TST readings were continuously recorded for the remainder of the study. Tail skin temperature readings were collected from each animal every 5 minutes with values obtained over a 10 second sampling period. The day before test day, an average baseline TST value was calculated for each animal by averaging temperature readings recorded during the 12 hour active (dark) phase. […]
Statistical analysis: Evaluation of a compound's ability to restore normal lowering of TST in the telemetry model was analyzed using hourly TST values calculated for each animal by averaging the 12 temperature readings obtained every 5 minutes over that recording time. […]

T1 sequence (P23975 whole entry): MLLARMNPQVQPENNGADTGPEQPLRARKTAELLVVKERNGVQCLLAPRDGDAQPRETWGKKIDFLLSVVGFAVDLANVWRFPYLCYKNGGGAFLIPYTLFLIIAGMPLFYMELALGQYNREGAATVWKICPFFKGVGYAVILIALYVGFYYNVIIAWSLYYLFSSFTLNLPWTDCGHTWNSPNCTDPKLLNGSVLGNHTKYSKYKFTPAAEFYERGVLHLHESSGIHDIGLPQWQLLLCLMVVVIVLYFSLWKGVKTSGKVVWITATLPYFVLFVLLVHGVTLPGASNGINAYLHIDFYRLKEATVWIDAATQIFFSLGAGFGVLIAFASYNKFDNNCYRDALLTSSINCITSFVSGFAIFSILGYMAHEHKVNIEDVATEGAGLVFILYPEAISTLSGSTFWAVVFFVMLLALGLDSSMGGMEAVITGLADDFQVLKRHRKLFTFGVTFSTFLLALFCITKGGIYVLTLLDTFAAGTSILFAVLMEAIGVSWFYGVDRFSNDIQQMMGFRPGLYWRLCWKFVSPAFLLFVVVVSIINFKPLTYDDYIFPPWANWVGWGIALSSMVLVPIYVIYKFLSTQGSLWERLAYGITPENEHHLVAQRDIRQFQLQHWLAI

Row | SMILES | EC50 (hNET) [µM] | EC50 (hSERT) [µM] | hDAT binding (% I at 10 μM) [1] [%] | effect on tail skin temperature (TST) [2]
1 | Cc1ccc(C23CNCC2C3)cc1 (single isomer, unassigned; (-)) [(−)-1-(4-methylphenyl)-3-azabicyclo[3.1.0]hexane] | 1.18 | 0.977 | 55 | restored normal TST
2 | Fc1ccc(C(OCCN2CCN(CCCc3ccccc3)CC2)c2ccc(F)cc2)cc1 [1-[2-[bis(4-fluorophenyl)methoxy]ethyl]-4-(3-phenylpropyl)piperazine, reference compound] | – | – | – | restored normal TST
